This assay addresses PKMζ (protein kinase Mzeta) (Homo sapiens, UniProt Q05513). Kind of assay: split-Venus BiFC of KIBRA-PKMζ dimerization in HEK293T cells. The assay is classed as cell-based.

Chain of PKMζ (protein kinase Mzeta) (Q05513 184-592 limits assumed): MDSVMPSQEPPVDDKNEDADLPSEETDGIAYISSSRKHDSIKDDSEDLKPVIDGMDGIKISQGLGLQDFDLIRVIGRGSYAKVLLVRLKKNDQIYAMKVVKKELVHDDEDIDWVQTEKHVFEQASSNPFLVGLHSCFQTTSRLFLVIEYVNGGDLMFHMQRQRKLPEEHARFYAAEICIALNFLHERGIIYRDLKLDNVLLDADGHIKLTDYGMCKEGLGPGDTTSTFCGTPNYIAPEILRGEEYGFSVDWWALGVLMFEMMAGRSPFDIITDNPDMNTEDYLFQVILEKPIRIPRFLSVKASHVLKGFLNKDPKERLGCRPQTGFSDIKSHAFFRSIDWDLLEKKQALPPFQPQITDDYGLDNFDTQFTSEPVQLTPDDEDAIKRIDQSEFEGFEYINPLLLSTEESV
Chain of PKMζ (protein kinase Mzeta) (Q8IX03 whole entry partner): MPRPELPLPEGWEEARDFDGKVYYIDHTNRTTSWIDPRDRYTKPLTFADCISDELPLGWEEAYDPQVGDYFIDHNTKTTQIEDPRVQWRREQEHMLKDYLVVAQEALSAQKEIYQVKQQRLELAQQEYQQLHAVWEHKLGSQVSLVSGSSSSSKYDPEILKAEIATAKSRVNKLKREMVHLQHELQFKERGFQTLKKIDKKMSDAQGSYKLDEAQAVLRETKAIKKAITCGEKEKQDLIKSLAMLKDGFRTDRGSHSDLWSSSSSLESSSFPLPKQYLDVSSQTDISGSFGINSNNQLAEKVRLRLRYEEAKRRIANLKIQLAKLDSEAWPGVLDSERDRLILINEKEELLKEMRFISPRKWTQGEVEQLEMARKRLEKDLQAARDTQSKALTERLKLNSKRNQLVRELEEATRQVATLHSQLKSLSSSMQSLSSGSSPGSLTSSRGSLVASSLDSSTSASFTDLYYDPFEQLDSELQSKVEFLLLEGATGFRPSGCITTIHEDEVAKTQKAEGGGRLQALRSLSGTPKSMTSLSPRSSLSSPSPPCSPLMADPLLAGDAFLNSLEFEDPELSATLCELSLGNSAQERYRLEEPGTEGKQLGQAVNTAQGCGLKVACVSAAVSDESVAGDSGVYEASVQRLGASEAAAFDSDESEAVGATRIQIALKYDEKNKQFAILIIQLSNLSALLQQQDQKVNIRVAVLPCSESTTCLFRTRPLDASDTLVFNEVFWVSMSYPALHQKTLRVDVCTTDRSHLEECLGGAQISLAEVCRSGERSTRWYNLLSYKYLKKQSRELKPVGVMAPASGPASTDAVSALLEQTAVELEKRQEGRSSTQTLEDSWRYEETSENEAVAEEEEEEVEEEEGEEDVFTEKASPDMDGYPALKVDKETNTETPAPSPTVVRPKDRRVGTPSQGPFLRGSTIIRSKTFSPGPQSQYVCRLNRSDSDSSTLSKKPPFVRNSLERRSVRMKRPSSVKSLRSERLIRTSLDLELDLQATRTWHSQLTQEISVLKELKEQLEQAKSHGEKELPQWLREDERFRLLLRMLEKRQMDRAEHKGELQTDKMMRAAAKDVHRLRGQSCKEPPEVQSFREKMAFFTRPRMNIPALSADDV

Regarding `O=S(=O)(O)c1cc(O)c2c(S(=O)(=O)O)cc(S(=O)(=O)O)cc2c1` [ζ-stat, 1-naphthol-3,6,8-trisulfonic acid], the IC50 was ~1 µM.

One may read the IC50 as the concentration that gives 50% inhibition. Low readings indicate higher potency, high ones lower potency.

Source of the values: PMC11204205 (Science Advances, 2024).
